According to patent publication US20250163054A1, “SUBSTITUTED BICYCLIC HETEROARYL COMPOUNDS USEFUL AS INHIBITORS OF TLR9” (Bristol-Myers Squibb Company, priority 2022, published 2025):
pIC50: −log10 of the molar value.

How the values were obtained:
Type in all cases: cell-based
human TLR9 = target: T1, human TLR9 (Homo sapiens, UniProt Q9NR96); assay: TLR7/8/9 Inhibition Reporter Assays (TLR9); conditions: HEK-Blue cells overexpressing human TLR9, SEAP reporter, stimulated with TLR9 ligand ODN2006
T1 construct: host or cells: HEK-Blue cells (HEK293-derived reporter line)
T1 sequence (Q9NR96 26-1032): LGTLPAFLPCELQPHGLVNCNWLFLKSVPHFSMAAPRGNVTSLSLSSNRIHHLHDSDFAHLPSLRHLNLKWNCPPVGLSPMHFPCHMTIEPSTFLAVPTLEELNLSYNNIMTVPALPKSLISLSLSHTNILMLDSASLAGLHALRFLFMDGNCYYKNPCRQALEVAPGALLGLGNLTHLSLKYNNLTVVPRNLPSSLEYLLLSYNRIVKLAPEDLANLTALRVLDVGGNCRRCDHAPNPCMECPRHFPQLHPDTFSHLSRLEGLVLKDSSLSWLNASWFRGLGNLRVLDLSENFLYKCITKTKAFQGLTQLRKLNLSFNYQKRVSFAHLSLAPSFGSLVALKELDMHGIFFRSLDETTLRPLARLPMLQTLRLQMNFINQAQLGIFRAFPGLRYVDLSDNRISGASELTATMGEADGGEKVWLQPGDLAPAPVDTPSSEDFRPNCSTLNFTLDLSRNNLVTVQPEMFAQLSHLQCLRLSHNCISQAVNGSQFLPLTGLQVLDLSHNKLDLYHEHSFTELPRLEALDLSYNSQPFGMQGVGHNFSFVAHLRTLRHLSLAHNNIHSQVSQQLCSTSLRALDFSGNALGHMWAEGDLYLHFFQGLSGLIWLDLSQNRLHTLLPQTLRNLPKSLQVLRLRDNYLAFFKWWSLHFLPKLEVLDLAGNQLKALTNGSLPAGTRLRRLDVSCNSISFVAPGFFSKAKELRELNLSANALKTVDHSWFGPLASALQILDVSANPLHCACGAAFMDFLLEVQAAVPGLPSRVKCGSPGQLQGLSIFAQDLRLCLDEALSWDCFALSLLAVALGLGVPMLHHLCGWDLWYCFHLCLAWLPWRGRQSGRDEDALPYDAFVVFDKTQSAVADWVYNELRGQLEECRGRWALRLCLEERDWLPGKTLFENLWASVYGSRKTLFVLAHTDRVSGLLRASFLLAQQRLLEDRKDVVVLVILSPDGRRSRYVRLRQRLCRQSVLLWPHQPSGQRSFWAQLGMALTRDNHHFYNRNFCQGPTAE
In short: (§1)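 HEK-Blue cells overexpressing human TLR7, TLR8 or TLR9 with NF-κB/AP-1-driven SEAP reporter, pre-treated 60 min with compound ([…]). Stimulated with […] (TLR7), […] (TLR8) or ODN2006 200 nM (TLR9), then 22 h at 37° C; SEAP measured, % inhibition relative to agonist-plus-DMSO and known-inhibitor wells.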

human TLR7 = target: T2, human TLR7 (Homo sapiens, UniProt Q9NYK1); assay: TLR7/8/9 Inhibition Reporter Assays (TLR7); conditions: HEK-Blue cells overexpressing human TLR7, SEAP reporter, stimulated with TLR7 ligand gardiquimod
T2 construct: host or cells: HEK-Blue cells (HEK293-derived reporter line)
T2 sequence (Q9NYK1 27-1049): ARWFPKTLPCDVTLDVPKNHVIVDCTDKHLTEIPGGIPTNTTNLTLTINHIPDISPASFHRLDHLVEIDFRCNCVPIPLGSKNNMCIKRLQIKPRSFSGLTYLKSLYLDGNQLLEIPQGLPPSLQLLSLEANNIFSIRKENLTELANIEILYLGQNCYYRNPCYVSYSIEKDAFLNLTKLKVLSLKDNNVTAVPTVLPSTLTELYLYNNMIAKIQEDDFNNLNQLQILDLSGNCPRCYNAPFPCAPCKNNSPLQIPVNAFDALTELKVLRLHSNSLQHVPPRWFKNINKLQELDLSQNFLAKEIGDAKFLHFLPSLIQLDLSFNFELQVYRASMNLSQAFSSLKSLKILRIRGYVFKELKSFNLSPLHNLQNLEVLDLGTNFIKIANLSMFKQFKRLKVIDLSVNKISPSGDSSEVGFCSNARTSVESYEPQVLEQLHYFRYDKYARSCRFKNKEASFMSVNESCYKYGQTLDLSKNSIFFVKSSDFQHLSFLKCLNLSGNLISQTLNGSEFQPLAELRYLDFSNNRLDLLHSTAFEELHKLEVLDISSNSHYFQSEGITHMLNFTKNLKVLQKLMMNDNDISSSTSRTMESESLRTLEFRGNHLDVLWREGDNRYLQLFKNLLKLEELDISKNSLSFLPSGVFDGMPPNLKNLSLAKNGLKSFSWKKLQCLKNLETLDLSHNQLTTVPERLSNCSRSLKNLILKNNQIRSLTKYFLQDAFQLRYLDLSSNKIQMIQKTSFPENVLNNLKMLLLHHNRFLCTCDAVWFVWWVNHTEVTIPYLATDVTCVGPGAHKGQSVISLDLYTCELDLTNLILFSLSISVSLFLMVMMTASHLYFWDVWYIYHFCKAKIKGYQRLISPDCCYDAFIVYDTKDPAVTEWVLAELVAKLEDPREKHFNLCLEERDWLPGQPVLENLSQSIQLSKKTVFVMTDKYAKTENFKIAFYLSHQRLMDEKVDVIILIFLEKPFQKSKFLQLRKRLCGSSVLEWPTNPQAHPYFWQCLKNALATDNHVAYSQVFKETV
In short: as §1

human TLR8 = target: T3, human TLR8 (Homo sapiens, UniProt Q9NR97); assay: TLR7/8/9 Inhibition Reporter Assays (TLR8); conditions: HEK-Blue cells overexpressing human TLR8, SEAP reporter, stimulated with TLR8 ligand R848
T3 construct: host or cells: HEK-Blue cells (HEK293-derived reporter line)
T3 sequence (Q9NR97 27-1041): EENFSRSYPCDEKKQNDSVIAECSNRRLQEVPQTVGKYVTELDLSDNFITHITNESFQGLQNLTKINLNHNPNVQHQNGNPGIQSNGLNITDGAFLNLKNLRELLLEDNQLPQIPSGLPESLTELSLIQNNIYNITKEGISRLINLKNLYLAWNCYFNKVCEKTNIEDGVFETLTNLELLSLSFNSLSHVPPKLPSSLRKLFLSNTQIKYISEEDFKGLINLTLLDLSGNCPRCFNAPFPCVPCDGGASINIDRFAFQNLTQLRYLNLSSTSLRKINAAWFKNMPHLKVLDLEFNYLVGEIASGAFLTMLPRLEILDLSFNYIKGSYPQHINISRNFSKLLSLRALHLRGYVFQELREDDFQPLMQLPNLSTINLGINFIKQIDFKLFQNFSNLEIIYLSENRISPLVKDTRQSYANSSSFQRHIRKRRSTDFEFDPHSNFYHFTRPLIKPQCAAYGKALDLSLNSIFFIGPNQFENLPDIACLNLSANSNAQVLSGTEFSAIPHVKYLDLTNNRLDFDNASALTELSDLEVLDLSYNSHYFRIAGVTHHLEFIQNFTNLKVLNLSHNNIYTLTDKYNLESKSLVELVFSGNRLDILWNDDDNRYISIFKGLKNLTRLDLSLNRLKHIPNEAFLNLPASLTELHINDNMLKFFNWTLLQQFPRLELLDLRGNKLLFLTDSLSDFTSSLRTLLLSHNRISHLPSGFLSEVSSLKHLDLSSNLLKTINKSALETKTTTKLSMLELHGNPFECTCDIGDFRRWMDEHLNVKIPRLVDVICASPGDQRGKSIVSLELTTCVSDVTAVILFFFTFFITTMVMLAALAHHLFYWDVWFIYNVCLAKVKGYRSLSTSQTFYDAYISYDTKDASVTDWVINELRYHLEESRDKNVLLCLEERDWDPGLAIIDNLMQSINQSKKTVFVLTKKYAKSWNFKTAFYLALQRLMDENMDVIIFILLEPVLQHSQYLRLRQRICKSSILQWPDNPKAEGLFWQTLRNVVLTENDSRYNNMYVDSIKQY
In short: as §1

Compound | pIC50 (human TLR9) | pIC50 (human TLR7) | pIC50 (human TLR8)
CC(C)CN1CCC(N2CC=C(c3cc4c(nc(-c5ccc(S(C)(=O)=O)cc5)n4C)c(C(F)(F)F)n3)CC2)CC1 [Example 36, 6-(1-(1-isobutylpiperidin-4-yl)-1,2,3,6-tetrahydropyridin-4-yl)-1-methyl-2-(4-(methylsulfonyl)phenyl)-4-(trifluoromethyl)-1H-imidazo[4,5-c]pyridine] | 6.48 | 5.39 | < 4.30
Cc1nc(-c2ccc(CN3CCC(N4CCOCC4)CC3)cc2)cc2c1nc(-c1ccc(S(C)(=O)=O)cc1)n2C1CC1 [Example 48, 4-(1-(4-(1-cyclopropyl-4-methyl-2-(4-(methylsulfonyl)phenyl)-1H-imidazo[4,5-c]pyridin-6-yl)benzyl)piperidin-4-yl) morpholine] | 6.57 | 5.42 | 5.77
COc1ccc(-c2nc3cnc(-c4ccc(N5CCC6(CC5)CN(CC(C)C)C6)cc4)cc3n2C2CC2)cc1OC [Example 61, 1-cyclopropyl-2-(3,4-dimethoxyphenyl)-6-(4-(2-isobutyl-2,7-diazaspiro[3.5]nonan-7-yl)phenyl)-1H-imidazo[4,5-c]pyridine] | 6.80 | 4.92 | 4.92
CC(C)CN1CCC(N2CCC(c3cc4c(cn3)nc(-c3ccc(S(C)(=O)=O)cc3)n4C)CC2)CC1 [Example 31, 6-(1′-isobutyl-[1,4′-bipiperidin]-4-yl)-1-methyl-2-(4-(methylsulfonyl)phenyl)-1H-imidazo[4,5-c]pyridine] | 6.62 | 5.32 | < 4.60
COc1ccc(-c2nc3c(C)nc(-c4ccc(N5CCC6(CC5)CN(C(C)C)C6)cc4)cc3n2C)cc1OC [Example 60, 2-(3,4-dimethoxyphenyl)-6-(4-(2-isopropyl-2,7-diazaspiro[3.5]nonan-7-yl)phenyl)-1,4-dimethyl-1H-imidazo[4,5-c]pyridine] | 6.85 | 5.64 | 4.43
COCCN1CC2(CCN(c3ccc(-c4cc5c(cn4)nc(-c4ccc(S(C)(=O)=O)cc4)n5C)cc3)CC2)C1 [Example 105, 6-(4-(2-(2-methoxyethyl)-2,7-diazaspiro[3.5]nonan-7-yl)phenyl)-1-methyl-2-(4-(methylsulfonyl)phenyl)-1H-imidazo[4,5-c]pyridine] | 6.22 | 5.35 | 5.66
COc1cc(-c2nc3c(C)nc(-c4ccc(N5CCN(C6CCC6)CC5)cc4)cc3n2C)cn2ncnc12 [Example 12, 6-(6-(4-(4-cyclobutylpiperazin-1-yl)phenyl)-1,4-dimethyl-1H-imidazo[4,5-c]pyridin-2-yl)-8-methoxy-[1,2,4]triazolo[1,5-a]pyridine] | 6.20 | 5.82 | < 4.30
Cc1nc(-c2ccc(C3CCN(CC4COC4)CC3)cc2)cc2c1nc(-c1ccc(S(C)(=O)=O)cc1)n2C [Example 29, 1,4-dimethyl-2-(4-(methylsulfonyl)phenyl)-6-(4-(1-(oxetan-3-ylmethyl)piperidin-4-yl)phenyl)-1H-imidazo[4,5-c]pyridine] | 5.96 | 4.89 | < 4.30
CC(C)CN1CC2(C1)CN(c1ccc(-c3cc4c(cn3)nc(-c3ccc(S(C)(=O)=O)cc3)n4C3CC3)cc1)C2 [Example 90, 1-cyclopropyl-6-(4-(6-isobutyl-2,6-diazaspiro[3.3]heptan-2-yl)phenyl)-2-(4-(methylsulfonyl)phenyl)-1H-imidazo[4,5-c]pyridine] | 6.36 | 5.24 | 5.54
COCCN1CC2(C1)CN(c1ccc(-c3cc4c(nc(-c5ccc(OC)c(OC)c5)n4C)c(C)n3)cc1)C2 [Example 101, 2-(3,4-dimethoxyphenyl)-6-(4-(6-(2-methoxyethyl)-2,6-diazaspiro[3.3]heptan-2-yl)phenyl)-1,4-dimethyl-1H-imidazo[4,5-c]pyridine] | 7.07 | 5.74 | < 4.30
COc1ccc(-c2nc3c(C)nc(-c4ccc(N5CCC6(CC5)CN(C5COC5)C6)cc4)cc3n2C)cc1OC [Example 106, 2-(3,4-dimethoxyphenyl)-1,4-dimethyl-6-(4-(2-(oxetan-3-yl)-2,7-diazaspiro[3.5]nonan-7-yl)phenyl)-1H-imidazo[4,5-c]pyridine] | 6.64 | 5.40 | < 4.30
COc1ccc(-c2nc3c(C)nc(-c4ccc(N5CC6(C5)CN(C5COC5)C6)cc4)cc3n2C)cc1OC [Example 102, 2-(3,4-dimethoxyphenyl)-1,4-dimethyl-6-(4-(6-(oxetan-3-yl)-2,6-diazaspiro[3.3]heptan-2-yl)phenyl)-1H-imidazo[4,5-c]pyridine] | 6.49 | 5.04 | < 4.30
